Experimental data taken from ChEMBL document CHEMBL3045070, “Identification of in vitro inhibitors of Mycobacterium tuberculosis Lysine -aminotransferase by pharmacophore mapping and three-dimensional flexible searches” (Med Chem Res, 2008).
Activity calls are given as the source filed them. No cut-off for these calls is given here.

Assays:
[1] = molecular target: T1, L-lysine-epsilon aminotransferase (Mycobacterium tuberculosis) (UniProt P9WQ77); assay: Inhibition of Mycobacterium tuberculosis lysine-epsilon aminotransferase at 400 uM
T1 sequence (whole entry): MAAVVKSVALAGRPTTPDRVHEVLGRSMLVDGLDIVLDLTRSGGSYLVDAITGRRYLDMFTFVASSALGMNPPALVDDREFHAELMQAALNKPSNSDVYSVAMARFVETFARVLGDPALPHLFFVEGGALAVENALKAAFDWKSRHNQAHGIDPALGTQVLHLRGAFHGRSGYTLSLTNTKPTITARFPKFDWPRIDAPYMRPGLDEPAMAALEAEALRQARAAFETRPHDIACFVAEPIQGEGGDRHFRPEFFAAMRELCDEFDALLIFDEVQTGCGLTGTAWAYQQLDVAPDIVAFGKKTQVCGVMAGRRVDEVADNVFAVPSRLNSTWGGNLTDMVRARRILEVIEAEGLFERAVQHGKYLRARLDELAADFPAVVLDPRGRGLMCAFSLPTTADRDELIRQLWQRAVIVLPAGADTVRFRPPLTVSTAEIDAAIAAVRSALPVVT

[2] = molecular target: T1, L-lysine-epsilon aminotransferase (Mycobacterium tuberculosis); assay: Inhibition of Mycobacterium tuberculosis lysine-epsilon aminotransferase at 600 uM

SMILES	inhibition [1]	inhibition [2]
CN(CC(O)c1ccccc1)CC1CCCCN1C (configuration not stated)	Active	–
COc1ccc(CC(=O)NCC2c3[nH]c4ccccc4c3CC3C(=O)N(CCc4ccc(OC)c(OC)c4)C(=O)N32)cc1 (configuration not stated)	–	60%
